Legend:
NCI60 cancer cell lines = assay: NCI60 growth assay: growth inhibition (GI50) profiles of therapeutic agents and their similarity; assay type: cell-based, human
Protocol: The human tumor cell lines of the cancer screening panel may be grown in RPMI 1640 medium containing 5% fetal bovine serum and 2 mM L-glutamine. Cells may be inoculated into 96 well microtiter plates in 100 μL at plating densities ranging from 5,000 to 40,000 cells/well depending on the doubling time of individual cell lines. After cell inoculation, the microtiter plates may be incubated at 37° C., 5% CO2, 95% air and 100% relative humidity for 24 hours prior to addition of experimental agent (e.g., an anthracycline, such as doxorubicin, epirubicin, daunorubicin, or idarubicin, or an anthracycline-containing liposome, such as a doxorubicin-containing liposome (e.g., 2B3-101)). […]
Following agent addition (e.g., an anthracycline, such as doxorubicin, epirubicin, daunorubicin, or idarubicin, or an anthracycline-containing liposome, such as a doxorubicin-containing liposome (e.g., 2B3-101)), the plates may be incubated for an additional 48 h at 37° C., 5% CO2, 95% air, and 100% relative humidity. […] Bound stain may be subsequently solubilized with 10 mM trizma base, and the absorbance may be read on an automated plate reader at a wavelength of 515 nm. […] Percentage growth inhibition may be calculated as: [(Ti−Tz)/(C−Tz)]×100 for concentrations for which Ti>/=Tz [(Ti−Tz)/Tz]×100 for concentrations for which Ti<Tz […]

breast cancer = assay: Clinical trial of 137 breast cancer patients treated with epirubicin (progression free survival, DRP validation); assay type: in vivo, human
Source text: The biomarkers of sensitivity and resistance identified in Example 2 and shown in Tables 3 and 4 have been validated in a clinical trial of 137 breast cancer patients treated with epirubicin. Patients were examined every 9 to 12 weeks by CT scan and clinical evaluation. After patient informed consent, mRNA was isolated from formalin fixed paraffin embedded tumor tissue from diagnostic biopsies and analyzed using Affymetrix arrays. Blinded predictions of epirubicin efficacy were compared to clinical data collected retrospectively from patient medical records. Statistical analysis was performed using Cox proportional hazards model adjusted for treatment line. The primary endpoint was progression free survival (PFS). Median time to progression was 9.3 months (95% CI: 7.2-13.2). Of the 137 patients, four received epirubicin more than once.
The estimated hazard ratio was 0.56 (90% CI: 0.35-0.89) comparing two patients with DRP score differing by 50 percentage points. The estimated median time to progression for a patient with a DRP value of 25% was 7 months versus 13 months for a patient with a DRP value of 75%. No interaction with previous adjuvant chemotherapy was observed (p=0.98).

SMILES	anti-tumor activity compared with doxorubicin (NCI60 cancer cell lines)	Median time to progression (breast cancer; 137 breast cancer patients treated with epirubicin) [months]	estimated median time to progression (breast cancer; patient with a DRP value of 25%) [months]	estimated median time to progression (breast cancer; patient with a DRP value of 75%) [months]	effect on the NCI60 tumor cell lines in multidimensional scaling plot of growth inhibition profiles (NCI60 cancer cell lines; NCI60 growth assay, FIG. 1)
COc1cccc2c1C(=O)c1c(O)c3c(c(O)c1C2=O)C[C@@](O)(C(=O)CO)C[C@@H]3O[C@H]1C[C@H](N)[C@@H](O)[C@H](C)O1 [epirubicin]	nearly identical to that of doxorubicin	9.3	7	13	
CC(=O)[C@]1(O)Cc2c(O)c3c(c(O)c2[C@@H](O[C@H]2C[C@H](N)[C@H](O)[C@H](C)O2)C1)C(=O)c1ccccc1C3=O [idarubicine, idarubicin]					slightly different effect on the NCI60 tumor cell lines

— patent US10900089B2, “Methods for predicting drug responsiveness in cancer patients” (Oncology Venture ApS, priority 2017, dated 2021)
